Experimental data published in ChEMBL document CHEMBL5346893, “1,2,4-Amino-triazine derivatives as pyruvate dehydrogenase kinase inhibitors: Synthesis and pharmacological evaluation” (Eur J Med Chem, 2023).
Active and inactive are the calls of the source. The rule behind the calls is not given here.

Tests used:
[1] = target: T1, [Pyruvate dehydrogenase (acetyl-transferring)] kinase isozyme 1, mitochondrial (Homo sapiens, UniProt Q15118); assay: Inhibition of PDK1 (unknown origin) at 1.5 uM incubated for 30 mins followed by substrate addition measured after 60 mins in presence of ATP by ADP-Glo luminescent assay relative to control; details: time 90.0 min, values are per cent of control
T1 sequence (Q15118 whole entry): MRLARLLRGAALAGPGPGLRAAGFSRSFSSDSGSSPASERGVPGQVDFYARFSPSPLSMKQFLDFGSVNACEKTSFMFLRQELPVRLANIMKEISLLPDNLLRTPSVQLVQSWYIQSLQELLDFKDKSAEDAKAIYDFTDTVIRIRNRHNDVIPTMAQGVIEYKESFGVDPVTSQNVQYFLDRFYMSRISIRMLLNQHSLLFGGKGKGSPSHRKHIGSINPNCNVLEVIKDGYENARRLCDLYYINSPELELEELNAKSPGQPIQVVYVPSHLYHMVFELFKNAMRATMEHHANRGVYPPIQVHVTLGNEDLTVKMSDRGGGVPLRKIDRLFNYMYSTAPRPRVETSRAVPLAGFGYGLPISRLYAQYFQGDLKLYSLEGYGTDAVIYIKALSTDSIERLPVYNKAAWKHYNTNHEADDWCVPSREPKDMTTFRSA

[2] = target: [Pyruvate dehydrogenase (acetyl-transferring)] kinase isozyme 2, mitochondrial (Homo sapiens) (UniProt Q15119); assay: Inhibition of PDK2 (unknown origin) at 1.5 uM incubated for 30 mins followed by substrate addition measured after 60 mins in presence of ATP by ADP-Glo luminescent assay relative to control; details: time 90.0 min
BXPC-3 [3] = assay: Antiproliferative activity against human BXPC-3 cells expressing wild type KRAS cultured as 2D spheroids assessed as inhibition of cell growth measured after 72 hrs by MTT assay; format: functional, cell-based; details: BXPC-3, 72 h
PSN1 [4] = assay: Antiproliferative activity against human PSN1 cells expressing KRAS mutant cultured as 2D spheroids assessed as inhibition of cell growth measured after 72 hrs by MTT assay; format: functional, cell-based; details: PSN1, 72 h
BXPC-3 [5] = assay: Antiproliferative activity against human BXPC-3 cells expressing wild type KRAS cultured as 3D spheroids assessed as inhibition of cell growth measured after 72 hrs by MTT assay; format: functional, cell-based; details: BXPC-3, 72 h
PSN1 [6] = assay: Antiproliferative activity against human PSN1 cells expressing KRAS mutant cultured as 3D spheroids assessed as inhibition of cell growth measured after 72 hrs by MTT assay; format: functional, cell-based; details: PSN1, 72 h
[7] = target: T1, [Pyruvate dehydrogenase (acetyl-transferring)] kinase isozyme 1, mitochondrial; assay: Inhibition of PDK1 (unknown origin) incubated for 30 mins followed by substrate addition measured after 60 mins in presence of ATP by ADP-Glo luminescent assay
[8] = target: [Pyruvate dehydrogenase (acetyl-transferring)] kinase isozyme 4, mitochondrial (Homo sapiens) (UniProt Q16654); assay: Inhibition of PDK4 (unknown origin) at 1.5 uM incubated for 30 mins followed by substrate addition measured after 60 mins in presence of ATP by ADP-Glo luminescent assay relative to control; details: time 90.0 min
[Pyruvate dehydrogenase (acetyl-transferring)] kinase isozyme 4, mitochondrial (Homo sapiens), sequence (Q16654 whole entry, looked up): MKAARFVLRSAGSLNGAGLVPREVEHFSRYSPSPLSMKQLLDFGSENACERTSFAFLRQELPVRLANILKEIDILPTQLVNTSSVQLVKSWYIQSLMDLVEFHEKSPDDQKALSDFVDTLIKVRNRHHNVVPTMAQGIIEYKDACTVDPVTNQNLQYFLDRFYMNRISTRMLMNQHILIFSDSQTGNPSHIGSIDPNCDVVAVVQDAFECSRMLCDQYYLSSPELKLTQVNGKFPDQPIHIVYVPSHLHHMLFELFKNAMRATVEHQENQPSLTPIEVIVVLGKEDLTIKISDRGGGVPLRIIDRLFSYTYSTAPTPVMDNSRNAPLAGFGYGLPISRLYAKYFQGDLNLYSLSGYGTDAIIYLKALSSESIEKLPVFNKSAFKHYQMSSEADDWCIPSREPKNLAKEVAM

Heat shock protein HSP90 = Heat shock protein HSP90 (Homo sapiens, UniProt P07900+P08238); assay: Inhibition of human recombinant HSP90 at 1.5 uM incubated for 30 mins by fluorescence polarization based analysis relative to control; format: protein assay
PSN1 [9] = assay: Downregulation of PDHA1 phosphorylation in human PSN1 cells at IC50 incubated for 24 hrs by ELISA assay; format: functional, cell-based
PSN1 [10] = assay: Inhibition of PDK in human PSN1 cells expressing KRAS mutant assessed as increase in cellular oxygen consumption at IC50 incubated for 60 mins by fluorescence based analysis; format: cell-based
PSN1 [11] = assay: Inhibition of PDK in human PSN1 cells expressing KRAS mutant assessed as decrease in lactate production levels at IC50 incubated for 60 mins by colorimetric analysis; format: cell-based
PSN1 [12] = assay: Induction of reactive oxygen species production in human PSN1 cells assessed as increase in cellular hydrogen peroxide formation at 5 uM by CM-H2DCFDA staining based analysis; format: functional, cell-based
PSN1 [13] = assay: Induction of reactive oxygen species production in human PSN1 cells assessed as decrease in total cellular sulfhydryls level at IC50 incubated for 24 hrs by DTNB reagent based spectrophotometric analysis; format: functional, cell-based
PSN1 [14] = assay: Induction of mitochondrial membrane potential loss in human PSN1 cells at IC50 incubated for 60 mins by fluorescence based analysis; format: functional
[15] = target: [Pyruvate dehydrogenase (acetyl-transferring)] kinase isozyme 3, mitochondrial (Homo sapiens) (UniProt Q15120); assay: Inhibition of PDK3 (unknown origin) at 1.5 uM incubated for 30 mins followed by substrate addition measured after 60 mins in presence of ATP by ADP-Glo luminescent assay relative to control; details: time 90.0 min
[Pyruvate dehydrogenase (acetyl-transferring)] kinase isozyme 3, mitochondrial (Homo sapiens), sequence (Q15120 whole entry, looked up): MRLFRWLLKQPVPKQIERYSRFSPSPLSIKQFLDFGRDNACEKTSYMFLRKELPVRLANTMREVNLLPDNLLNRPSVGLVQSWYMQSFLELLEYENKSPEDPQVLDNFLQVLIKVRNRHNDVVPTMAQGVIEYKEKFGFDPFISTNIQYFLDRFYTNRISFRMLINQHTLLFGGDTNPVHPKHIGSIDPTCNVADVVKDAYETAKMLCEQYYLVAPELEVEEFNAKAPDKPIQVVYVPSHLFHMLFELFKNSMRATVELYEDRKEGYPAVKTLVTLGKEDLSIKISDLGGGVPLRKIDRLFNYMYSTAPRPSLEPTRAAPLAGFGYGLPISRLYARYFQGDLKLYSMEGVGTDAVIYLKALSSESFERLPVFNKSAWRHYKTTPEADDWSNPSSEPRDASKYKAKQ

| Compound | residual activity [1] [%] | inhibition [2] [%] | IC50 (BXPC-3 [3]) [µM] | IC50 (PSN1 [4]) [µM] | IC50 (BXPC-3 [5]) [µM] | IC50 (PSN1 [6]) [µM] | IC50 [7] [µM] | inhibition [8] [%] | inhibition (Heat shock protein HSP90) [%] | Activity (PSN1 [9]) | inhibition (PSN1 [10]) | inhibition (PSN1 [11]) | Activity (PSN1 [12]) | Activity (PSN1 [13]) | Activity (PSN1 [14]) | inhibition [15] [%] |
| --- | --- | --- | --- | --- | --- | --- | --- | --- | --- | --- | --- | --- | --- | --- | --- | --- |
| Cn1cc(-c2nc(N)nnc2-c2c[nH]c3ccccc23)c2cc(Br)cnc21 | 40 | 100 | 2.7 | 4.7 | 33.6 | 31.2 | – | – | – | – | – | – | – | – | – | – |
| COc1ccc2[nH]cc(-c3nc(N)nnc3-c3cn(C)c4ncccc34)c2c1 | 40 | 100 | 1.4 | 2.3 | 13.6 | 13.6 | – | – | – | – | – | – | – | – | – | – |
| Nc1nnc(-c2c[nH]c3ncccc23)c(-c2c[nH]c3ccc(F)cc23)n1 | 40 | 100 | 2.6 | 3.2 | 19.7 | 20.1 | – | – | – | – | – | – | – | – | – | – |
| Cn1cc(-c2nc(N)nnc2-c2c[nH]c3ccccc23)c2cccnc21 | 40 | 100 | 1.9 | 2.1 | 15.5 | 13.2 | – | – | – | – | – | – | – | – | – | – |
| Nc1nnc(-c2c[nH]c3ccc(Br)cc23)c(-c2c[nH]c3ncc(Br)cc23)n1 | 40 | 100 | 1.4 | 1.5 | 54.5 | 21.6 | – | – | – | – | – | – | – | – | – | – |
| Cn1cc(-c2nc(N)nnc2-c2c[nH]c3ccc(Br)cc23)c2cc(Br)cnc21 | 0 | 100 | 0.7 | 1.1 | 6 | 24.2 | 0.06 | 0 | 40 | Active | Active | Active | Active | Active | Active | – |
| Nc1nnc(-c2c[nH]c3ccc(F)cc23)c(-c2c[nH]c3ncccc23)n1 | 40 | 100 | 1.2 | 1.6 | 22.6 | 22.3 | – | – | – | – | – | – | – | – | – | – |
| Nc1nnc(-c2c[nH]c3ccc(F)cc23)c(-c2c[nH]c3ncc(Br)cc23)n1 | 40 | 100 | 1.7 | 1.3 | 14.9 | 19.2 | – | – | – | – | – | – | – | – | – | 100 |
| Cn1cc(-c2nc(N)nnc2-c2c[nH]c3ccc(F)cc23)c2cc(Br)cnc21 | 60 | – | 0.2 | 2.3 | 5 | 8.3 | 0.15 | 60 | 60 | Active | Active | Active | Active | Active | Active | – |
| Cn1cc(-c2nc(N)nnc2-c2c[nH]c3ccc(Br)cc23)c2cccnc21 | 40 | 100 | 2.5 | 3.6 | 19.9 | 24.1 | – | – | – | – | – | – | – | – | – | 100 |
| Cn1cc(-c2nnc(N)nc2-c2c[nH]c3ccc(Br)cc23)c2cccnc21 | 40 | 100 | 2.3 | 2.9 | 25.9 | 20.9 | – | – | – | – | – | – | – | – | – | 100 |
| Nc1nnc(-c2c[nH]c3ccccc23)c(-c2c[nH]c3ncccc23)n1 | 40 | 100 | 1.5 | 1.8 | 23.2 | 14.3 | – | – | – | – | – | – | – | – | – | 100 |
| COc1ccc2[nH]cc(-c3nc(N)nnc3-c3c[nH]c4ncccc34)c2c1 | 40 | 100 | 2.1 | 2.2 | 34.2 | 35.2 | – | – | – | – | – | – | – | – | – | 100 |
| CCCCCC[C@H]1C(=O)O[C@H](C)[C@H](NC(=O)c2cccc(NC=O)c2O)C(=O)O[C@@H](C)[C@@H]1OC(=O)CC(C)C | – | – | – | – | – | – | – | – | – | – | – | – | Active | – | – | – |
| Cn1cc(-c2nnc(N)nc2-c2c[nH]c3ccccc23)c2cccnc21 | 40 | 100 | 1.8 | 2.2 | 16.1 | 20.1 | – | – | – | – | – | – | – | – | – | – |
| Nc1nnc(-c2c[nH]c3ncc(Br)cc23)c(-c2c[nH]c3ccc(Br)cc23)n1 | 40 | 100 | 2.1 | 4.6 | 28.7 | 23.5 | – | – | – | – | – | – | – | – | – | 100 |
| COc1ccc2[nH]cc(-c3nnc(N)nc3-c3c[nH]c4ncc(Br)cc34)c2c1 | 40 | 100 | 3.2 | 3.4 | 27.5 | 22.1 | – | – | – | – | – | – | – | – | – | – |
| COc1ccc2[nH]cc(-c3nnc(N)nc3-c3cn(C)c4ncccc34)c2c1 | 40 | 100 | 1.5 | 2.1 | 10.7 | 12.2 | – | – | – | – | – | – | – | – | – | – |
| Nc1nnc(-c2c[nH]c3ncccc23)c(-c2c[nH]c3ccc(Br)cc23)n1 | 40 | 100 | 1.8 | 1.6 | 16.4 | 15.1 | – | – | – | – | – | – | – | – | – | – |
| O=C(c1ccccc1)C(Cl)Cl | – | – | 10.2 | 36.5 | 78.2 | 87.4 | > 100 | – | – | Active | Active | Active | – | – | – | – |
| Cn1cc(-c2nc(N)nnc2-c2c[nH]c3ccc(F)cc23)c2cccnc21 | 40 | 100 | 2.2 | 3.2 | 22.2 | 20.3 | – | – | – | – | – | – | – | – | – | 100 |
| O=C(O)C(Cl)Cl [DICHLOROACETIC ACID] | – | – | > 1000 | > 1000 | > 1000 | > 1000 | – | – | – | – | – | – | – | – | – | – |
| Cn1cc(-c2nnc(N)nc2-c2c[nH]c3ccccc23)c2cc(Br)cnc21 | 40 | 100 | 3.2 | 4.6 | 34.2 | 31.8 | – | – | – | – | – | – | – | – | – | – |
| Cn1cc(-c2nnc(N)nc2-c2c[nH]c3ccc(F)cc23)c2cccnc21 | 40 | 100 | 1.6 | 1.6 | 14.6 | 16 | – | – | – | – | – | – | – | – | – | 100 |
| COc1ccc2[nH]cc(-c3nc(N)nnc3-c3cn(C)c4ncc(Br)cc34)c2c1 | 40 | 100 | 0.3 | 2.6 | 6.3 | 8.4 | – | – | 0 | – | – | – | – | – | – | 100 |
| COc1ccc2[nH]cc(-c3nnc(N)nc3-c3c[nH]c4ncccc34)c2c1 | 40 | 100 | – | – | – | – | – | – | – | – | – | – | – | – | – | – |
| Nc1nnc(-c2c[nH]c3ncc(Br)cc23)c(-c2c[nH]c3ccc(F)cc23)n1 | 40 | 100 | 2.5 | 2.9 | 19.7 | 28.3 | – | – | – | – | – | – | – | – | – | 100 |
| Nc1nnc(-c2c[nH]c3ccc(Br)cc23)c(-c2c[nH]c3ncccc23)n1 | 40 | 100 | – | – | – | – | – | – | – | – | – | – | – | – | – | – |
| COc1ccc2[nH]cc(-c3nc(N)nnc3-c3c[nH]c4ncc(Br)cc34)c2c1 | 40 | 100 | 4.4 | 4.7 | 31.2 | 17.2 | – | – | – | – | – | – | – | – | – | 100 |
